Reference: patent US7749962B2, “Alpha 5 beta 1 and its ability to regulate the cell survival pathway” (University of Medicine & Dentistry of NJ, priority 2002, dated 2010)
Where two headings read alike, the source gives them in different places.

Legend:
Akt [1] = test: Western blot of Akt phosphorylation after ATRA; assay type: cell-based
Procedure: MCF-7 cells were treated with EGF 100 ng/ml for 10 min followed by ATRA 10^−7 M or control media 2 h later for an additional 24 h. Western blots of lysates were stained with anti-phospho-Akt ab. Cells were harvested and lysates were prepared as described^2 and analyzed as before^3.

RhoA = RhoA (Homo sapiens, UniProt P61586); settings: target RhoA, cited from earlier work
RhoA, sequence (P61586 whole entry, species assumed): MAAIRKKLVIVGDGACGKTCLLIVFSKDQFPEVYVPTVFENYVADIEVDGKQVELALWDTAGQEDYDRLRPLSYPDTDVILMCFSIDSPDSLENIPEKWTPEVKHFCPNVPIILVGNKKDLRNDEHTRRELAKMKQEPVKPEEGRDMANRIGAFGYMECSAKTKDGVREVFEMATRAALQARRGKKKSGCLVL

MCF-7 and T-47D cells = test: Clonogenic potential with growth factors in tissue culture; assay type: cell-based; settings: growth factor 10 ng/ml
Procedure: (§1) One thousand MCF-7 or MDA MB-231 cells per well were incubated in 24 well tissue culture plates with and without the presence of 10 ng/ml basic fibroblast growth factor (FGF-2) or epidermal growth factor (EFG). Plates were stained with crystal violet after a 5 day incubation and clones consisting of A. 29±2 cells and B. 8±2 cells were counted. C. Ten thousand T-47D cells per well were incubated in 24 well tissue culture plates coated with fibronectin with and without the presence of 10 ng/ml basic fibroblast growth factor (FGF-2) or epidermal growth factor (EFG). Plates were stained with crystal violet after 3 days and clones consisting of 8 or more cells were counted.
(§2) MCF-7 and T-47D (1,000 cells/well) and MDA MB-231 (200 cells per well) were incubated in 24 well plates±10 ng/ml EFG or FGF-2 for 6 days, stained with crystal violet and clones with ≧29 actively growing cells (▪) or with ≦10 well spread, growth arrested cells ( ? ) were counted.
(§3) MCF-7, SK-Br-3, MDA-MB-231, PC-3 and LNCaP cells were purchased from the American Type Culture Collection (ATCC), (Rockville, Md.). Cells were cultured in Dulbecco's Modified Eagle's Medium (DMEM) (Gibco BRL, Gaithersburg, Md.) with phenol red 15 mg/l, 2 mM glutamine, 10% heat inactivated fetal calf serum (FCS) and penicillin 50 units/ml and streptomycin 50 micrograms μg/ml (Gemini Bioproducts, Calabasas, Calif.). One to ten thousand cells were incubated on 24 well tissue culture plates that were either commercially coated for tissue culture (uncoated) or coated with 20 g fibronectin, laminin I, collagen I or collagen IV, depending on the cell type or experimental conditions described in the figure legends. Colonies were manually counted at 100× magnification after variable days in culture as described in the figure legends after removing the media and staining cells with crystal violet. Proliferation kinetics were performed as before^1 using 2% trypan blue counts on trypsinized cells on the days indicated in the figure in triplicate plates.

MDA-MB-231 cells = test: as above; assay type: cell-based; settings: growth factor 10 ng/ml
Procedure: as §1, §2, §3

integrin α5 = test: Western blot of integrin α5 expression ± FGF-2; assay type: cell-based
Procedure: A. Gene chip analysis of integrin α5 and β1 mRNA expression in MCF-7 cells incubated±FGF-2 for 3 or 5 days on fibronectin-coated plates. Densitometer quantitations normalized against GAPDH and actin mRNA standards are shown. B. Western blots of integrin α5 from cells incubated±FGF-2 for 3 days on tissue culture- or fibronectin-coated dishes. C. Indirect immunofluorescence of integrin α5 in T-47D cells on cover slips±FGF-2 10 ng/ml for 24 hours. D. Western blots of integrins α2, α3, α4, α6, β1, β3 and β4 in MCF-7 and T-47D cells incubated±FGF-2 for 3 days. Nonspecific bands were as loading controls.
(§4) Cells were harvested and lysates were prepared as described^2 and analyzed as before^3.

Akt [2] = test: Western blot of Akt phosphorylation by FGF-2 on fibronectin; assay type: cell-based
Procedure: Western blots of lysates from MCF-7, T-47D and MDA-MB-231 cells incubated on fibronectin-coated plates with FGF-2 for up to 5 days were stained with antibody to phospho-Akt or total Akt. […] No effect was noted on total Akt levels. Stained membrane was used as a loading control.
as §4

MCF-7 cells = test: Clonogenicity ± fibronectin with FGF-2 and fibronectin-blocking peptide; assay type: cell-based; settings: FGF-2 10 ng/ml; peptide 1 ng/ml added after 3 days, counted 6 days later
Procedure: 10^3 MCF-7 (and T-47D, not shown) cells were incubated±fibronectin with 10 ng/ml FGF-2. Fibronectin-blocking peptide GRGDSP 1 ng/ml (American Peptide Co., Inc, Sunnyvale, Calif.) was added after 3 days and 4, 8 and 12 cell colonies were counted 6 days later.
as §3

CC1=C(/C=C/C(C)=C/C=C/C(C)=C/C(=O)O)C(C)(C)CCC1 [ATRA, all-trans retinoic acid]
FGF-2 induced increases in total and phosphorylated Akt (Akt [1]): reversed FGF-2 induced increases in total and Phosphorylated Akt | EGF-mediated phosphorylation of Akt (Akt [1]; MCF-7 cells, EGF 100 ng/ml, ATRA 10^−7 M for 24 h): reversed the EGF-mediated phosphorylation of Akt

C3 transferase
ED50 (RhoA): 2 to 5 µg/mL | ED50 (RhoA; listed as C3 transferase inhibitor): 2 to 5 µg/mL

EFG: epidermal growth factor; recombinant human, R&D Systems
clonogenic potential (MCF-7 and T-47D cells): no effect | growth (clonogenic potential) (MDA-MB-231 cells): no effect

FGF-2: fibroblast growth factor 2, basic fibroblast growth factor; recombinant human, R&D Systems
clonogenic potential (MCF-7 and T-47D cells): markedly diminished clonogenic potential | growth (clonogenic potential) (MDA-MB-231 cells): no effect | integrin α5 expression (integrin α5; MCF-7 and T-47D cells on plastic or fibronectin-coated dishes): induction of integrin α5 expression | integrin α5 expression (integrin α5; MDA-MB-231 cells, baseline high levels): No effect | phosphorylation of Akt (Akt [2]; MCF-7 and T-47D cells on fibronectin, up to 5 days): induced phosphorylation of Akt | phosphorylation of Akt (Akt [2]; MDA-MB-231 cells on fibronectin, constitutive phosphorylation): no effect on constitutive Akt phosphorylation

GRGDSP
colonies on fibronectin (MCF-7 cells): only inhibited colonies on fibronectin | colonies on plastic (MCF-7 cells): not on plastic
